This experiment has as its target T1, Recombinant human Protein-tyrosine phosphatase1B (PTP1B) (Homo sapiens, UniProt P18031).
T1 construct: Recombinant human Protein-tyrosine phosphatase1B (PTP1B) (amino acid 1-322 Biomol, USA); purchased Biomol, USA
T1 sequence (P18031 1-322): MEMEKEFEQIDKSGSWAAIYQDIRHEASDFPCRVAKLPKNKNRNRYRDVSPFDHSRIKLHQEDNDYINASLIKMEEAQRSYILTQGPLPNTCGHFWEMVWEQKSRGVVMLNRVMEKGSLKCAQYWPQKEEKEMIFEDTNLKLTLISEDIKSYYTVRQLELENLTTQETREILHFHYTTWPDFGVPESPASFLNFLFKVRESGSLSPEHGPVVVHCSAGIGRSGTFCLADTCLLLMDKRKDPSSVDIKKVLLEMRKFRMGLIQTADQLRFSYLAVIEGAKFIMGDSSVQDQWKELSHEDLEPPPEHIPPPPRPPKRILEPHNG
As to the kind of experiment: PTP1B enzyme inhibition assay (pNpp substrate). In kind it is biochemical. Particulars: inhibition of recombinant human PTP1B, pNpp 5 mM, 30 mins at 25° C; inhibitor concentration not given. As for the experimental part: Protein tyrosine phosphatase 1B (PTP1B) is an intracellular enzyme which functions by removing the phosphate groups from phosphorylated tyrosine residues of cellular proteins. PTP1B has been implicated as a negative regulator of insulin action and therefore is of therapeutic interest. The ability of the test compounds to inhibit the activity of PTP1B is determined using an enzyme inhibition assay.
The assay is performed using two independent substrates of PTP1B namely, p-nitrophenyl phosphate (pNpp) and the phosphorylated Epidermal growth factor receptor peptide (EGFR).
In the assay performed with pNpp, the action of PTP1B results in the release of p-nitrophenol, which is yellow in colour and can be measured at 410 nm. In the case of the assay using EGFR, action of PTP1B results in the release of free phosphate group. This is trapped using a reagent containing ammonium molybdate and malachite green resulting in a colored complex whose absorbance can be measured at 620 nm.
1× Assay buffer 50 mM HEPES (pH 7.4) • 1 mM EDTA • 1 mM DTT • 0.05% Igepal® CA-630
Dilute recombinant Human PTP1B 1:150 in 1× Assay buffer for 10× stock,
Prepare 10× stock of pNpp (50 mM) in 1× Assay buffer
Prepare 100× stock in 100% DMSO, dilute 1:10 with 1× Assay buffer to get 10× stock in 10% DMSO.
PTP1B inhibition assay was performed using recombinant human PTP1B. PTP1B (0.016 μg/well) was incubated in a buffer containing 50 mM HEPES, 1 mM DTT, 1 mM EDTA and 0.05% Igepal® CA-630 with or without inhibitor (10× stock, final DMSO concentration is 1%) for 30 mins at 25° C. This was followed by addition of p-Nitrophenyl phosphate (pNpp) substrate (5 mM). The final volume of the reaction mixture is 50 μL and experiment was done in 96 well half area plate. The incubation was continued for 30 mins at 25° C. The conversion of pNpp to p-Nitrophenol (pNp) was measured at 410 nm in Spectramaxplus Spectrophotometer (Molecular Devices, USA).
Consider “4-[5-(6-Ethoxy-naphthalen-2-ylmethylene)-4-oxo-4,5-dihydro-thiazol-2-ylamino]-phenyl}-sodium acetate [Compound 143]”, for which the “Activity Score” value was “(+++) (+++ = >50% inhibition)”. To `O=C(O)Cc1ccc(NC2=NC(=O)C(=Cc3ccc4ccccc4c3)S2)cc1` [Compound 1, [4-(5-Naphthalen-2-ylmethylene-4-oxo-4,5-dihydro-thiazol-2-ylamino)-phenyl]-acetic acid] belongs “(+++) (+++ = >50% inhibition)”; to `O=C(O)Cc1ccc(NC2=NC(=O)C(=Cc3cn(CC(=O)O)c4ccccc34)S2)cc1` [Compound 2, {4-[5-(1-Carboxymethyl-1H-indol-3-ylmethylene)-4-oxo-4,5-dihydro-thiazol-2-ylamino]-phenyl}-acetic acid], “(+++) (+++ = >50% inhibition)”. As for `O=C(O)Cc1ccc(NC2=NC(=O)C(=Cc3cc4ccccc4cc3OCc3ccccc3)S2)cc1` [Compound 3, {4-[5-(3-Benzyloxy-naphthalen-2-ylmethylene)-4-oxo-4,5-dihydro-thiazol-2-ylamino]-phenyl}-acetic acid], the entry is “(+++) (+++ = >50% inhibition)”. As for `O=C(O)Cc1ccc(NC2=NC(=O)C(=Cc3ccccc3)S2)cc1` [Compound 5, [4-(5-Benzylidene-4-oxo-4,5-dihydro-thiazol-2-ylamino)-phenyl]-acetic acid], the “Activity Score” value was “(+) (+ = 10-20% inhibition)”.

In the case of `COc1ccc2cc(C=C3SC(Nc4ccc(CC(=O)O)cc4)=NC3=O)ccc2c1` [Compound 7, {4-[5-(6-Methoxy-naphthalen-2-ylmethylene)-4-oxo-4,5-dihydro-thiazol-2-ylamino]-phenyl}-acetic acid], the “Activity Score” value was “(+++) (+++ = >50% inhibition)”.

Turning to `O=C(O)Cc1ccc(NC2=NC(=O)C(=Cc3c[nH]c4ccccc34)S2)cc1` [Compound 8, {4-[5-(1H-Indol-3-ylmethylene)-4-oxo-4,5-dihydro-thiazol-2-ylamino]-phenyl}-acetic acid], the “Activity Score” value is given as “(+) (+ = 10-20% inhibition)”. Consider `O=C(O)Cc1ccc(NC2=NC(=O)C(=Cc3ccc(-c4ccccc4)cc3)S2)cc1` [Compound 9, [4-(5-Biphenyl-4-ylmethylene-4-oxo-4,5-dihydro-thiazol-2-ylamino)-phenyl]-acetic acid], for which the “Activity Score” value was “(+++) (+++ = >50% inhibition)”. As for `CC(C)Oc1cc2ccccc2cc1C=C1SC(Nc2ccc(CC(=O)O)cc2)=NC1=O` [Compound 10, {4-[5-(3-Isopropoxy-naphthalen-2-ylmethylene)-4-oxo-4,5-dihydro-thiazol-2-ylamino]-phenyl}-acetic acid], the entry is “(++) (++ = 20-50% inhibition)”; as for `CC(C)(C)OC(=O)Cn1cc(C=C2SC(Nc3ccc(CC(=O)O)cc3)=NC2=O)c2ccccc21` [Compound 11, {4-[5-(1-tert-Butoxycarbonylmethyl-1H-indol-3-ylmethylene)-4-oxo-4,5-dihydro-thiazol-2-ylamino]-phenyl}-acetic acid], “(++) (++ = 20-50% inhibition)”; as for `CC(=C1SC(Nc2ccc(CC(=O)O)cc2)=NC1=O)c1cc2ccccc2o1` [Compound 13, {4-[5-(1-Benzofuran-2-yl-ethylidene)-4-oxo-4,5-dihydro-thiazol-2-ylamino]-phenyl}-acetic acid], “(++) (++ = 20-50% inhibition)”. As for `O=C(O)Cc1cccc(NC2=NC(=O)C(=Cc3cc4ccccc4cc3OCc3ccccc3)S2)c1` [Compound 14, {3-[5-(3-Benzyloxy-naphthalen-2-ylmethylene)-4-oxo-4,5-dihydro-thiazol-2-ylamino]-phenyl}-acetic acid], the entry is “(++) (++ = 20-50% inhibition)”. To `O=C(O)Cc1cccc(NC2=NC(=O)C(=Cc3ccc4ccccc4c3)S2)c1` [Compound 16, [3-(5-Naphthalen-2-ylmethylene-4-oxo-4,5-dihydro-thiazol-2-ylamino)-phenyl]-acetic acid] belongs “(+) (+ = 10-20% inhibition)”.
